Test results published in a melting point compilation (Tetko et al.; mined from patent text by program, amines drawn as free bases though some values may be those of a salt).

Row | SMILES | melting point [°C]
1 | COC(=O)c1cccc2c1OCO2 | 55 to 57
2 | CCOC(=O)C1CCc2cc3ccccc3n2C1=O (stereo not given) | 82 to 84
3 | COc1ccc(-c2nn(CC(C)=O)c(=O)cc2-c2ccncc2)cc1 | 68.3 to 70.6
4 | CCCCSC(=NC(=O)N(CCC)CCC)NC(=O)NC(C)(C)C | 92 to 94
5 | CC1=C(OCC(C)C)CCC(C)(C)C1(O)C[Si](C)(C)C (stereo not given) | 50
6 | CN(CCNc1ncc(Cc2ccc(Cl)cc2)c(=O)[nH]1)c1ccccn1 | 172 to 174
7 | CCn1cnc2c(Nc3cccc(C#N)c3)nc(Cl)nc21 | 189
8 | CC[C@H]1COC(=O)N1c1nc(-c2ccc(C#N)cc2)c(C#N)s1 | 201 to 203
9 | O=C1c2ccccc2C(=O)N1CCCCCSc1ccccc1 | 87 to 88
10 | COc1cccc(NC(=O)C23CC4CC(CC(C4)C2)C3)c1 | 172 to 174
11 | OCc1cc2c3ccccc3ncn2n1 | 132 to 133
12 | C=C(CC(C)C)C(=O)NCC(=O)O | 73 to 80
13 | CC(C)COc1ccc2sc(-c3ccccn3)nc(=O)c2c1 | 136
14 | COC(=O)CCc1ccc(N2CCN(c3ccc4c(c3)CCC4=O)C2=O)cc1 | 204 to 206
15 | O=[N+]([O-])c1oc2ccc(-c3ccc(CCO)cc3)cc2c1-c1ccccc1 | 86 to 87
16 | Cc1c(C)c2c(c(C)c1NC(=O)CC(C)(C)C)C(O)(C1CCCCC1)C(C)(C)O2 (stereo not given) | 170 to 171
17 | COc1ccc2c(Cc3c(Cl)cncc3Cl)nnc(CO)c2c1 | 190 to 195
18 | COCc1ncnc(Cl)c1C | 37 to 38
19 | O=C(/C=C/c1ccc2ccccc2c1)Nc1cc(Cl)ccc1NC(=O)C(F)(F)F | 179 to 185
20 | OC1CSC(Oc2cncc(-c3ccnc(Cl)c3)c2)C(O)C1O (stereo not given) | 204
21 | Cc1cccc(OCCOS(N)(=O)=O)c1 | 76 to 78
22 | COc1ccc(C(=O)N2c3ccccc3C(N3CCc4ccccc4C3)CC2C)cc1OC (stereo not given) | 128 to 129
23 | CC(C(=O)O)c1cccc2c1Oc1ccccc1CC2=O (stereo not given) | 159 to 160
24 | Nc1nc(N)c(N=O)c(OCC2CCCCC2)n1 | 254
25 | COc1ccc(/C(=C/C=C/C(=O)O)C(C)C)cc1 | 132 to 133

Row | SMILES | melting point [°C]
26 | O=C1c2ccccc2C(=O)N1CCc1ccc(OC2c3ccccc3CCc3ccccc32)cc1 | 205 to 207
27 | Cc1sc(N)c(C(=O)c2cccc3ccccc23)c1C | 195 to 197
28 | N#Cc1ccc(OCCO)c(C(N)=O)c1 | 144 to 146
29 | Cc1nc(N2CCN(CCCC(F)(F)F)C2=O)sc1-c1cc[nH]n1 | 185 to 186
30 | CC1=C2C(=C(c3ccccc3Cl)N=CC(=O)N2C)NO1 | 136 to 138
31 | Cn1ncc(C(=O)Nc2ccc(F)cc2Cl)c1N | 176 to 177
32 | Cc1ccccc1NC(=O)Nc1ccc(-c2c(Cc3ccccc3)sc3ncnc(N)c23)cc1 | 245 to 248
33 | O=C(O)[C@H](CCc1ccccc1)NS(=O)(=O)c1ccc2c(c1)Cc1ccccc1-2 | 128 to 131
34 | CCN(CC)CCNc1ccc(NCCN(CC)CC)c2c1C(=O)c1ccccc1C2=O | 109
35 | CC(=O)c1cnc2onc(C)c2c1Cl | 63
36 | Cn1nc(O[C@@H]2c3cc(C(F)(F)C(F)(F)F)ccc3OC(CF)(CF)[C@H]2O)ccc1=O (relative stereo) | 189 to 191
37 | N#CC(C#N)=CN(N=C(C#N)C#N)c1cccc(F)c1 | 134 to 135
38 | O=C1C(=O)c2ccccc2C2=C1SCC1(CCN(CC(O)Cc3ccc(Cl)cc3)CC1)O2 (stereo not given) | 195 to 196
39 | Cc1cccc2c1N(CC(=O)N1CC3CCC(CC3)C1)C(=O)C(NC(=O)Nc1cccc(CO)c1)N=C2c1ccccc1F (stereo not given) | 188 to 202
40 | CC(C)(C)OC(=O)C=Cc1cnc2ccccc2c1 | 128 to 129
41 | CCn1c(=O)[nH]c2ncn(CC)c2c1=O | 204 to 205
42 | O=C(CI)NCCSC=CSCCNC(=O)CI | 129
43 | CN1CC2(c3cccc(O)c3)CCCC1C2 (stereo not given) | 144 to 146
44 | CC(C)(C)c1cc(C(=O)COc2ccc(C(=O)OCc3ccccc3)c(O)c2)ccc1OCc1ccccc1 | 91 to 93
45 | COC12CC(CCN3CCC(c4c[nH]c5ccccc45)CC3)CN(C)C1Cc1c[nH]c3cccc2c13 (stereo not given) | 153 to 156
46 | CCCC[C@]1(CC)CS(=O)(=O)c2cc(O)c(O)cc2[C@@H](c2ccccc2)N1 | 117 to 118
47 | COc1cc(Nc2c(C#N)cnc3cc(-c4ccc(CN5CCC(O)CC5)cc4)sc23)c(Cl)cc1Cl | 149 to 150
48 | CCOP(=O)(OCC)C(c1ccccc1)c1ccccc1C(F)(F)F (stereo not given) | 127 to 130
49 | N#Cc1cc(-c2cc(C(F)F)c3cnn(C4CCCCO4)c3n2)ccc1N (stereo not given) | 192
50 | COc1ccc(OC)c(Nc2nc(-c3ccc(F)cc3)cs2)c1 | 160

Row | SMILES | melting point [°C]
51 | COc1cc(OC)cc(-c2ncn(-c3cc(OC)c(OC)c(OC)c3)c2-c2ccc(OC)c(F)c2)c1 | 157 to 158
52 | COc1ccc(C2Sc3cc(Cc4ccc(C)s4)ccc3N(CCN(C)C)C(=O)C2OC(C)=O)cc1 (stereo not given) | 131 to 134
53 | O=c1c2ccccc2nc(-c2cc(-c3ccc(Cl)cc3)c(N3CCOCC3)s2)n1-c1ccccc1Cl | 215 to 217
54 | CC1=C(C(=O)O)N2C(=O)C(NC(=O)Cc3ccc(CN=[N+]=[N-])cc3)C2SC1 (stereo not given) | 154 to 155
55 | CC(CCc1ccccc1)NCC(O)c1ccc(C(N)=O)s1 (stereo not given) | 108 to 116
56 | N#Cc1cnn2c1NCCC2c1cccc(C(F)(F)F)c1 (stereo not given) | 192 to 194
57 | CCCCOc1ccc(NC(=O)CNc2ccccc2F)cc1 | 92 to 94
58 | COc1ccc(-c2c(Cl)c(CN3C(=O)CCC3=O)nc3sc4c(c23)CCNC4)cc1 | 225 to 226
59 | CCN(CC)C(=O)Nc1c(C(=O)c2ccccc2)[nH]c2cc(Cl)ccc12 | 196 to 198
60 | O=C(OCc1ccc(C(F)(F)F)cc1)N1CCN(CC2Cn3cc([N+](=O)[O-])nc3O2)CC1 (stereo not given) | 120 to 122
61 | Cn1c(C(F)(F)F)cc(=O)n(Cc2cc(I)cc(Cl)c2Cl)c1=O | 142 to 144
62 | COC(=O)CCCOc1cccc(CNC(=O)C2Cc3ccccc3N2S(=O)(=O)c2ccc(-c3cccc(C(F)(F)F)c3)cc2)c1 (stereo not given) | 50
63 | CCCCCCC(O)CCCCCCCCCCC(=O)NCCCC (stereo not given) | 100 to 102
64 | CN1C(=O)C(Cc2ccccc2)(c2ccccc2O)c2ccccc21 (stereo not given) | 188 to 190
65 | O=C1CC2(CCCC2)CC(=O)N1CCCCOc1cccc2c1SCCC2 | 69
66 | Cc1cccc(NC(=O)N2CCN(CC(=O)N3CC=C(c4cccc(C(F)(F)F)c4)n4ncc(C#N)c43)CC2)c1 | 138 to 140
67 | COC(=O)CCCOc1cc(C(C)C)c2c(c1)S(=O)(=O)N(COC(=O)c1ccccc1)C2=O | 122 to 124
68 | CC(=O)On1c(=O)c(=O)[nH]c2cc(Cl)ccc21 | 219
69 | Cc1nc(N2CCCC(C(O)c3ccccc3)C2=O)sc1C(=O)NCc1ccccc1 (stereo not given) | 74 to 75
70 | CCOC(=O)c1cnc2c(OC)cccc2c1Nc1ccccc1 | 120 to 121
71 | CCOc1nc(N)nc(N2CCc3ccccc3CC2)c1C#N | 195 to 203
72 | CN1C(=O)C(c2ccc(OC(F)F)cc2)(c2ccc(F)c(CCCC#N)c2)N=C1N (stereo not given) | 65 to 70
73 | CSc1ccc(OCCO)cc1 | 55 to 56.5
74 | O=C(CCn1c2ccccc2c2ccccc21)OCCn1c2ccccc2c2ccccc21 | 163 to 165
75 | COC(=O)C1=C(C)NC(C)=C(C(=O)OC)C1c1ccc(OCC(=O)NCCO[N+](=O)[O-])c(OC)c1 | 149 to 150

Row | SMILES | melting point [°C]
76 | C(=C\c1cc(/C=C/c2ccc3cc[nH]c3c2)[nH]n1)/c1ccc(N2CCCCC2)cc1 | 189 to 191
77 | CCNC(=O)N1C(c2ccccc2C(=O)OCC)=NC(=O)C1(C)C(C)C (stereo not given) | 85 to 87
78 | COc1cc(OCc2ccccn2)ccc1/C=C/c1cc(/C=C/c2cc3ccccc3[nH]2)n[nH]1 | 151 to 152
79 | O=C1NC(=Cc2c[nH]c3ccccc23)C(=O)N1Cc1cc(C(F)(F)F)cc(C(F)(F)F)c1 | 151 to 153
80 | COc1ccccc1C=CCN1CCc2nc(N)sc2CC1 | 80 to 84
81 | Cc1ccc(C(=O)c2cnn3c(-c4cccnc4)ccnc23)cc1 | 203 to 204
82 | Cc1ccc(C)c(OCCCC(C)(C)C(=O)Nc2cccc(C(=O)O)c2)c1 | 161
83 | Cc1oc(C)c2c(=O)c3c(=O)ccc(=O)c=3c(=O)c12 | > 270
84 | C#CCCC(O)=C(C#N)C(=O)Nc1ccc(Cl)c(C)c1 | 147
85 | Cc1cc2c(s1)c(=O)c(C(=O)O)cn2C | 305 to 315
86 | Nc1nc2ccc(CCN3CCC(Oc4ccccc4)CC3)cc2s1 | 164 to 167
87 | CN1CC(C(=O)NC2NCCS2)CC2c3ccc(C(C)(C)C)c4[nH]cc(c34)CC21 (stereo not given) | 243 to 247
88 | O=C(O)C1Cc2c(c(Br)cc3c(=O)c4ccccc4oc23)O1 (stereo not given) | 283 to 286
89 | CCc1nc(C(=O)O)c(CC)c(C)c1C(c1cc(F)ccc1F)S(=O)(=O)c1ccc(F)cc1 (stereo not given) | 151 to 153
90 | N#Cc1ccc(COc2ccc3c(c2)CCNC3=O)cc1 | 158 to 160
91 | Cc1cc(-c2c[nH]c(C)n2)ccn1 | 115 to 117
92 | CN1Cc2cccnc2C(N2CCN(C(=O)CC3CCN(C(=O)OC(C)(C)C)CC3)CC2)c2ccc(Cl)cc21 (stereo not given) | 86 to 98
93 | O=c1ccn2ncc(-c3cccs3)c2[nH]1 | 231 to 232
94 | C[C@H](CS(C)(=O)=O)NC(=O)c1c[nH]c2ncc(-c3nn(C)c4cc(Cl)ccc34)nc12 | 287 to 290
95 | CN1CCC(c2nn(-c3cccc(C(F)(F)F)c3)c3ccccc23)CC1 | 103 to 105
96 | c1cc2c3c(c1)nc(N1CCOCC1)n3CCC2 | 93 to 94
97 | c1ccc(Cn2cncc2-c2cnc(-c3ccccc3)nc2)cc1 | 140
98 | CN(C)c1cccc([N+](=O)[O-])c1CC=NNC(N)=O | 156 to 157
99 | COc1cccc(CCN2C(=O)c3cc(Cl)c(Cl)cc3C2(O)c2ccc(F)cc2)c1 (stereo not given) | 169
100 | CC(=O)OC[C@H]1O[C@@H]2[C@@H](Sc3ccccc3N2C(=O)c2ccccc2)[C@@H](OC(C)=O)[C@@H]1OC(C)=O | 154 to 155
